Assay results reported in a compilation of properties of binary mixtures (doi:10.1021/acs.jced.0c00447).

Experiment: xn = mol fraction of the nth substance listed
Conditions: 100 kPa

OCC(F)(F)F + CC[n+]1ccn(C)c1.N#C[N-]C#N
x2 = 0
Conditions | speed of sound [m/s] | viscosity [mPa·s]
303.15 K | 819.3 | 1.56
313.15 K | 792.3 | 1.23
318.15 K | 778.8 | 1.1
323.15 K | 765.1 | 0.99

CC[n+]1ccn(C)c1.N#C[N-]C#N + OCC(F)(F)F
Conditions | speed of sound [m/s] | viscosity [mPa·s]
298.15 K, x1 = 0.1031 | 1021.8 | 2.48
298.15 K, x1 = 0.1957 | 1150.9 | 3.2
298.15 K, x1 = 0.4905 | 1463.6 | 6.07
298.15 K, x1 = 0.5915 | 1544.5 | 7.25
298.15 K, x1 = 0.6943 | 1614.6 | 8.56
298.15 K, x1 = 0.7956 | 1673.5 | 9.95
298.15 K, x1 = 0.8915 | 1730.2 | 11.36
298.15 K, x1 = 1 | 1786.7 | 13.09
303.15 K, x1 = 0.1957 | 1137.7 | 2.81
303.15 K, x1 = 0.2936 | 1258.6 | 3.55
303.15 K, x1 = 0.3935 | 1366.8 | 4.39
303.15 K, x1 = 0.4905 | 1450.9 | 5.29
303.15 K, x1 = 0.6943 | 1602.2 | 7.46
303.15 K, x1 = 0.7956 | 1661.2 | 8.67
303.15 K, x1 = 0.8915 | 1717.9 | 9.91
303.15 K, x1 = 1 | 1774.6 | 11.39
308.15 K, x1 = 0.1031 | 995.3 | 1.96
308.15 K, x1 = 0.1957 | 1124.7 | 2.52
308.15 K, x1 = 0.2936 | 1245.8 | 3.17
308.15 K, x1 = 0.3935 | 1354.2 | 3.92
308.15 K, x1 = 0.4905 | 1438.3 | 4.71
308.15 K, x1 = 0.5915 | 1519.5 | 5.61
308.15 K, x1 = 0.6943 | 1590 | 6.6
308.15 K, x1 = 0.7956 | 1649.1 | 7.66
308.15 K, x1 = 1 | 1762.5 | 10
313.15 K, x1 = 0.1031 | 982.2 | 1.76
313.15 K, x1 = 0.1957 | 1111.8 | 2.27
313.15 K, x1 = 0.2936 | 1233.1 | 2.87
313.15 K, x1 = 0.3935 | 1341.7 | 3.54
313.15 K, x1 = 0.4905 | 1425.9 | 4.25
313.15 K, x1 = 0.5915 | 1507.3 | 5.04
313.15 K, x1 = 0.6943 | 1577.9 | 5.91
313.15 K, x1 = 0.7956 | 1637 | 6.83
313.15 K, x1 = 0.8915 | 1693.9 | 7.76
318.15 K, x1 = 0.1031 | 969.4 | 1.6
318.15 K, x1 = 0.3935 | 1329.4 | 3.23
318.15 K, x1 = 0.4905 | 1413.7 | 3.86
318.15 K, x1 = 0.5915 | 1495.2 | 4.57
318.15 K, x1 = 0.6943 | 1565.9 | 5.34
318.15 K, x1 = 0.7956 | 1625 | 6.15
318.15 K, x1 = 0.8915 | 1682 | 6.96
318.15 K, x1 = 1 | 1738.8 | 7.92
323.15 K, x1 = 0.1031 | 956.4 | 1.48
323.15 K, x1 = 0.1957 | 1086.4 | 1.93
323.15 K, x1 = 0.2936 | 1208.1 | 2.44
323.15 K, x1 = 0.3935 | 1317.1 | 2.99
323.15 K, x1 = 0.4905 | 1401.5 | 3.57
323.15 K, x1 = 0.5915 | 1483.2 | 4.2
323.15 K, x1 = 0.6943 | 1553.9 | 4.89
323.15 K, x1 = 0.7956 | 1613.1 | 5.6
323.15 K, x1 = 0.8915 | 1670.2 | 6.31
323.15 K, x1 = 1 | 1727.1 | 7.13
